Where a SMILES comes first, the peptide text is derived from it. Bridges are numbered along the chain shown (N, C = ends). Roman numbers before positions name the chains, in order. [ ]: non-standard residue; d: D form. Tle = CC(C)(C)[C@H](N)C(=O)O; dDab = NCC[C@@H](N)C(=O)O; Nle = CCCC[C@H](N)C(=O)O; Dab = NCC[C@H](N)C(=O)O; dAze = O=C(O)[C@H]1CCN1 A value given as a limit tells only on which side of the number the result lay.

Holding throughout (assay type): cell-based
The subject of data set [1] is Escherichia coli ATCC 25922. Particulars: ATCC 25922. In short, it runs like this: (§1)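 Inocula standardised to a 0.5 McFarland reference and diluted to about 10^6 CFU/mL in MH-II broth are incubated with two-fold peptide series containing 0.002% polysorbate 80. No visible growth after 18-20 hours at 35° C defines the MIC, in μg/mL.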
For the next data set, the system named is Escherichia coli 926415. Particulars: 926415.
Data set [2] concerns Acinetobacter baumannii DSM 30008. As to conditions: DSM 30008. The method in brief: as §1
Data set [3] has as its system Klebsiella pneumoniae 968733. Particulars: 968733.
The test system of data set [4] is Acinetobacter baumannii 872842. Particulars: 872842.
The test system of data set [5] is Pseudomonas aeruginosa ATCC 27853. As to conditions: ATCC 27853. The method in brief: as §1
In data set [6] the test system is Klebsiella pneumoniae SSI #3010. Particulars: SSI #3010. In short, it runs like this:
as §1

In data set [7] the test system is human red blood cells (hRBC). The data set is described as follows: Hemolysis of human red blood cells. As to conditions: red cells of human, 1 h, 100. In short, it runs like this: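 Percent lysis of washed human erythrocytes after 1 h at 37° C. with 100 μg/mL peptide, calculated from OD540 of 8-fold diluted supernatant as a fraction of the 2.5% Triton X-100 value.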

For the molecule `CC(C)C[C@@H]1NC(=O)[C@@H](Cc2ccccc2)NC(=O)[C@H](CCN)NC(=O)[C@@H](NC(=O)[C@H](CCN)NC(=O)[C@@H](NC(=O)[C@H](CCN)NC(=O)CC[C@@H]2NC(=O)[C@H](CCN)NC(=O)[C@H](Cc3ccc(O)cc3)NC(=O)[C@H]([C@@H](C)O)NC(=O)[C@H](C(C)C)NC(=O)[C@@H]3CCCN3C(=O)[C@H]3CCN3C(=O)[C@H](CO)NC(=O)[C@H](C)NC(=O)[C@H](C(C)(C)C)NC(=O)[C@H](CCN)NC(=O)[C@H](Cc3c[nH]c4ccccc34)NC(=O)[C@H](CCN)NC(=O)[C@@H](CCN)NC2=O)[C@@H](C)O)CCNC(=O)[C@H]([C@@H](C)O)NC(=O)[C@H](CCN)NC(=O)[C@H](CCN)NC1=O` [Ex. 80] (I: cyclo(W[Dab][Tle]AS[dAze]PVTY[Dab]E[dDab][Dab]) / II: [Dab]T[Dab][Dab][Dab][dF]L[Dab][Dab]T; amide I:12-II:N; lactam II:4-II:C), the “Escherichia coli ATCC 25922 MIC” value in data set [1] turned out to be 0.25 µg/mL. Besides, the “Escherichia coli 926415 MIC” value with Escherichia coli 926415 worked out at 0.25 µg/mL. The “Acinetobacter baumannii DSM 30008 MIC” value in data set [2] is 0.5 µg/mL. In addition, in data set [3], the “Klebsiella pneumoniae 968733 MIC” value was determined as 1 µg/mL. Besides, the “Acinetobacter baumannii 872842 MIC” value in data set [4] was 0.5 µg/mL. Besides, in data set [5], the “Pseudomonas aeruginosa ATCC 27853 MIC” value came to 0.25 µg/mL. Further, the “Klebsiella pneumoniae SSI #3010 MIC” value in data set [6] came to 0.25 µg/mL. The “Hemolysis at 100 μg/mL” value in data set [7] is less than 1%.

Consider `CCCC[C@@H]1NC(=O)[C@@H]2CCCN2C(=O)[C@H]2CCCN2C(=O)[C@H](CO)NC(=O)[C@H](C)NC(=O)[C@H](C(C)(C)C)NC(=O)[C@H](CCN)NC(=O)[C@H](Cc2c[nH]c3ccccc23)NC(=O)[C@H](CCN)NC(=O)[C@@H](CCN)NC(=O)[C@H](CCC(=O)N[C@@H](CCN)C(=O)N[C@@H](C(=O)N[C@@H](CCN)C(=O)N[C@H]2CCNC(=O)[C@H]([C@@H](C)O)NC(=O)[C@H](CCN)NC(=O)[C@H](CCN)NC(=O)[C@H](CC(C)C)NC(=O)[C@@H](Cc3ccccc3)NC(=O)[C@H](CCN)NC2=O)[C@H](C)O)NC(=O)[C@H](CCN)NC(=O)[C@H](Cc2ccc(O)cc2)NC(=O)[C@H](CO)NC1=O` [Ex. 81] (I: cyclo(W[Dab][Tle]AS[dP]P[Nle]SY[Dab]E[dDab][Dab]) / II: [Dab][dT][Dab][Dab][Dab][dF]L[Dab][Dab]T; amide I:12-II:N; lactam II:4-II:C), for which the “Escherichia coli ATCC 25922 MIC” value in data set [1] came to 0.5 µg/mL. In addition, in the data set on Escherichia coli 926415, the “Escherichia coli 926415 MIC” value turned out to be 0.5 µg/mL. The “Acinetobacter baumannii DSM 30008 MIC” value in data set [2] amounted to 1 µg/mL. Further, in data set [3], the “Klebsiella pneumoniae 968733 MIC” value amounted to 2 µg/mL. Also, the “Acinetobacter baumannii 872842 MIC” value in data set [4] turned out to be 2 µg/mL. The “Pseudomonas aeruginosa ATCC 27853 MIC” value in data set [5] was found to be 0.5 µg/mL. Moreover, the “Klebsiella pneumoniae SSI #3010 MIC” value in data set [6] was 1 µg/mL. In addition, the “Hemolysis at 100 μg/mL” value in data set [7] turned out to be 1%.

Regarding `CC(C)C[C@@H]1NC(=O)[C@@H](CC(C)C)NC(=O)[C@H](CCN)NC(=O)[C@@H](NC(=O)[C@H](CCN)NC(=O)[C@@H](NC(=O)[C@H](CCN)NC(=O)CC[C@@H]2NC(=O)[C@H](CCN)NC(=O)[C@H](Cc3ccc(O)cc3)NC(=O)[C@H]([C@@H](C)O)NC(=O)[C@H](C(C)C)NC(=O)[C@@H]3CCCN3C(=O)[C@H]3CCN3C(=O)[C@H](CO)NC(=O)[C@H](C)NC(=O)[C@H](C(C)(C)C)NC(=O)[C@H](CCN)NC(=O)[C@H](Cc3c[nH]c4ccccc34)NC(=O)[C@H](CCN)NC(=O)[C@@H](CCN)NC2=O)[C@@H](C)O)CCNC(=O)[C@H]([C@@H](C)O)NC(=O)[C@H](CCN)NC(=O)[C@H](CCN)NC1=O` [Ex. 82] (I: cyclo(AS[dAze]PVTY[Dab]E[dDab][Dab]W[Dab][Tle]) / II: [Dab]T[Dab][Dab][Dab][dL]L[Dab][Dab]T; amide I:9-II:N; lactam II:4-II:C), the “Escherichia coli ATCC 25922 MIC” value in data set [1] stood at 0.5 µg/mL. The “Escherichia coli 926415 MIC” value in the data set on Escherichia coli 926415 was 0.5 µg/mL. The “Acinetobacter baumannii DSM 30008 MIC” value in data set [2] came to 1 µg/mL. Also, the “Klebsiella pneumoniae 968733 MIC” value in data set [3] is 0.5 µg/mL. Further, the “Acinetobacter baumannii 872842 MIC” value in data set [4] was found to be 0.5 µg/mL. For the same molecule, the “Pseudomonas aeruginosa ATCC 27853 MIC” value in data set [5] came out at 0.5 µg/mL. Also, the “Klebsiella pneumoniae SSI #3010 MIC” value in data set [6] is 0.5 µg/mL. Besides, the “Hemolysis at 100 μg/mL” value in data set [7] is on record as less than 1%.
